Converted amounts (≈) assume the structure as drawn. One block for each compound: values may come before it.
Columns and labels:
Type in all cases: functional
Acinetobacter baumannii = assay: Antibacterial activity against Acinetobacter baumannii ATCC 19606 assessed as reduction in microbial growth by CLSI protocol based broth micro-dilution method
Staphylococcus aureus [1] = assay: Antibacterial activity against methicillin-resistant Staphylococcus aureus MB5393 assessed as reduction in bacterial growth incubated for 18 to 20 hrs by broth micro-dilution method; conditions: time 18-20 hrs
Staphylococcus aureus [2] = assay: Antibacterial activity against Staphylococcus aureus ATCC 25923 assessed as reduction in bacterial growth by CLSI protocol based MHB micro-silution method
[3] = test system: Erysipelothrix rhusiopathiae; assay: Antibacterial activity against Erysipelothrix rhusiopathiae WH13013 assessed as reduction in bacterial growth by CLSI protocol based MHB micro-silution method
Streptococcus suis = assay: Antibacterial activity against Streptococcus suis SC19 assessed as reduction in bacterial growth by CLSI protocol based MHB micro-silution method
Escherichia coli [4] = assay: Antibacterial activity Escherichia coli ATCC 8739 assessed as reduction in bacterial growth
Staphylococcus aureus [5] = assay: Antibacterial activity Staphylococcus aureus ATCC 25923 assessed as reduction in bacterial growth
Bacillus subtilis [6] = assay: Antibacterial activity Bacillus subtilis ATCC 49343 assessed as reduction in bacterial growth
Staphylococcus aureus [7] = assay: Antibacterial activity against methicillin-Staphylococcus aureus ATCC 29213 assessed as reduction in bacterial growth by broth micro-dilution method
Micrococcus luteus = assay: Antibacterial activity against Micrococcus luteus ML01 assessed as reduction in bacterial growth incubated for 24 to 48 hrs by serial dilution method; conditions: time 24-48 hrs
Kocuria rhizophila = assay: Antimicrobial activity against Kocuria rhizophila ATCC 9341 assessed as reduction in microbial growth
Staphylococcus aureus [8] = assay: Antimicrobial activity against Staphylococcus aureus ATCC 25913 assessed as reduction in bacterial growth by CLSI protocol based Mueller-Hinton broth micro-dilution method
Enterococcus faecalis = assay: Antibacterial activity against Enterococcus faecalis ATCC 29212 assessed as reduction in microbial growth by CLSI protocol based Mueller-Hinton broth micro-dilution method
Escherichia coli [9] = assay: Antibacterial activity against Escherichia coli DH5a
Bacillus subtilis [10] = assay: Antibacterial activity against Bacillus subtilis
Staphylococcus aureus [11] = assay: Antibacterial activity against Staphylococcus aureus

MIC (Staphylococcus aureus [2]): 0.78 µg/mL (≈ 2.48 µM) | MIC [3]: 6.25 µg/mL (≈ 19.9 µM) | MIC (Streptococcus suis): 12.5 µg/mL (≈ 39.8 µM)
Structure (SMILES): C[C@@H](O)Cc1cc(O)cc2c1C(=O)c1c(O)ccc(O)c1C2=O

MIC (Escherichia coli [4]): 133 µg/mL (≈ 488 µM) | MIC (Staphylococcus aureus [5]): 86.9 µg/mL (≈ 319 µM) | MIC (Bacillus subtilis [6]): 48.4 µg/mL (≈ 178 µM)
Structure (SMILES): C=C(C)[C@@H]1CC[C@H](C)[C@H]2CC/C(C)=C/CC/C(C)=C/[C@H]21

MIC (Kocuria rhizophila): 50 µg/mL
Structure (SMILES): CC(C)C[C@H](NC(=O)/C=N/O)[C@@H](O)[C@@H](C)C(=O)O

MIC (Staphylococcus aureus [8]): 40 µg/mL (≈ 89.8 µM) | MIC (Enterococcus faecalis): 40 µg/mL
Structure (SMILES): C[C@@H](O)[C@@H]1CC[C@H](c2ccc(O)c3c2C(=O)[C@@]24O[C@@]2([C@@H](C)O[C@@H]2CC(=O)O[C@@H]24)[C@H]3O)N1C

MIC (Staphylococcus aureus [7]): 3 µg/mL (≈ 6.41 µM) | MIC (Micrococcus luteus): 16 µg/mL (≈ 34.2 µM)
Structure (SMILES): COC(=O)c1[nH]c(C(=O)O)c(-c2c[nH]c3c(Cl)cccc23)c1-c1c[nH]c2c(Cl)cccc12

MIC (Staphylococcus aureus [8]): 40 µg/mL (≈ 89.8 µM) | MIC (Enterococcus faecalis): 40 µg/mL
Structure (SMILES): C[C@@H](O)[C@@H]1CC[C@H](c2ccc(O)c3c2C(=O)[C@]24O[C@]2([C@@H](C)O[C@@H]2CC(=O)O[C@@H]24)[C@H]3O)N1C

Continued, compound first:

Structure (SMILES): COc1cc(-c2ccccn2)nc(/C=N/O)c1S(C)(=O)=O
MIC (Acinetobacter baumannii): 128 µg/mL

Structure (SMILES): CC[C@@H](/C=C/[C@@H]1C/C=C(\C)[C@@H](O)[C@@H](C)[C@H](O[C@H]2O[C@H](CO)[C@H](O)[C@@H](O)[C@H]2O)C[C@@H](O)[C@@H](C)[C@H](O)C[C@@H]2C[C@H](O)[C@@H](O)[C@](O)(C[C@@H](O[C@H]3O[C@@H](C)[C@H](O)[C@@H](O[C@H]4C[C@H](N)[C@@H](O)[C@@H](C)O4)[C@@H]3O[C@H]3O[C@@H](C)[C@H](O)[C@@H](O)[C@@H]3O)[C@@H](C)/C=C/[C@@H](O)C[C@@H](O)[C@@H](C)/C=C/C(=O)O1)O2)[C@@H](O)[C@@H](C)[C@H](CC)O[C@H]1C[C@](C)(N)[C@H](O)[C@H](C)O1
MIC (Staphylococcus aureus [1]): 2 µg/mL (≈ 1.26 µM)

Structure (SMILES): O=C1NC(=O)C(c2c[nH]c3cc(Cl)c(Cl)cc23)=C1c1c[nH]c2ccc(Cl)cc12
MIC (Staphylococcus aureus [7]): 1 µg/mL (≈ 2.32 µM) | MIC (Micrococcus luteus): 0.5 µg/mL (≈ 1.16 µM)

Structure (SMILES): C=C(C)[C@@H]1CC[C@H](C)[C@H]2CC/C(C)=C/C[C@H](O)/C(C(=O)O)=C/[C@H]21
MIC (Escherichia coli [4]): 125 µg/mL (≈ 394 µM) | MIC (Staphylococcus aureus [5]): 49.7 µg/mL (≈ 156 µM) | MIC (Bacillus subtilis [6]): 1.1 µg/mL (≈ 3.45 µM)

Structure (SMILES): COc1ccc(OC)c([C@@H](O)[C@@H](C)C(=O)c2ccc(OC)c(C(=O)O)c2O)c1
MIC (Escherichia coli [9]): > 100 µg/mL | MIC (Bacillus subtilis [10]): 10 µg/mL (≈ 25.6 µM) | MIC (Staphylococcus aureus [11]): 18 µg/mL (≈ 46.1 µM)

Structure (SMILES): CC[C@@H](/C=C/[C@@H]1C/C=C(\C)[C@@H](O)[C@@H](C)[C@H](O)C[C@@H](O)[C@@H](C)[C@H](O)C[C@@H]2C[C@H](O)[C@@H](O)[C@](O)(C[C@@H](O[C@H]3O[C@@H](C)[C@H](O)[C@@H](O[C@H]4C[C@H](N)[C@@H](O)[C@@H](C)O4)[C@@H]3O[C@H]3O[C@@H](C)[C@H](O)[C@@H](O)[C@@H]3O)[C@@H](C)/C=C/[C@@H](O)C[C@@H](O)[C@@H](C)/C=C/C(=O)O1)O2)[C@@H](O)[C@@H](C)[C@H](CC)O[C@H]1C[C@](C)(N)[C@H](O)[C@H](C)O1
MIC (Staphylococcus aureus [1]): 1 µg/mL (≈ 0.702 µM)

From ChEMBL document CHEMBL6182843, “Actinomycetes: Treasure trove for discovering novel antibiotic candidates” (2025)
